Measured values reported in patent US11560400B2, “Salts of diphosphate phosphoramidate of nucleosides as anticancer compounds” (NuCana plc, priority 2017, dated 2023).
Structures can show the parent of a compound that is named as a salt. Where two headings read alike, the source gives them in different places.

What was measured:
OVCAR 3 = test: CellTiterGlo cell viability assay, OVCAR 3; type: cell-based; conditions: Homo sapiens; for inhibition at 198 µM: OVCAR-3, 72 h, percentage inhibition at the highest concentration tested, read-out: Top Inhibit; for EC50: OVCAR 3, 72 h, read-out: Ab EC50
Method: (§1) A subset of compounds of the invention were assayed for their cytotoxic activity in an array of different solid tumours and haematological malignancies using the following assay.
(§2) In vitro viability assay were performed to assess the effects of compounds on cell viability in selected cell lines over 72 h using the CellTiterGlo (CTG, Promega-G7573) assay. The tests were performed in duplicates with treatment of compounds at 9 points, 3.16 folds titration in 96 well plates over ˜72 h. The compound starting concentrations were 198 μM. Cell viability assay using CellTiterGlo in 96-well plate were performed. Compound treatment 72 h, standard growth conditions, duplicates. Compounds were dissolved to 40 mM with thawed […]. Compounds were serially diluted at 3.16 fold in thawed DMSO, and warmed to 37° C. before being dissolved in media (2 μL+200 μL). After compounds were dissolved in media, media containing compounds were warmed to 37° C. in incubator and then compounds in media were added to cell plates (50 μL+50 μL) in duplicates. The compounds' final concentrations were from 198 μM to 19.8 nM. All compound solubilities were checked and recorded again, then the plates were transferred to CO2 tissue culture incubator immediately and incubated for 3 days. DMSO final concentration is 0.5%. The parent nucleoside in each case was tested as a comparator, as was an exemplary ProTide. The drugs of the ProTide class that were tested were as follows:
(§3) The following cell lines were tested and are referred to in the Table 1 below:
(§4) In Tables 2, 3 and 4, ‘Ab EC50’ refers to the absolute EC50 and ‘Top inhibit’ refers to the percentage inhibition achieved at the highest concentration tested.

MCF-7 = test: CellTiterGlo cell viability assay, MCF-7; type: cell-based; conditions: Homo sapiens, MCF7, 72 h, MCF-7, 72 h, percentage inhibition at the highest concentration tested; read-out: Top Inhibit
Method: as §1, §2, §3, §4

HT29 = test: CellTiterGlo cell viability assay, HT29; type: cell-based; conditions: Homo sapiens, HT-29, 72 h, HT29, 72 h; for EC50: read-out: Ab EC50; for inhibition at 198 µM: percentage inhibition at the highest concentration tested, read-out: Top Inhibit
Method: as §1, §2, §3, §4

HL-60 = test: CellTiterGlo cell viability assay, HL-60; type: cell-based; conditions: Homo sapiens, HL-60, 72 h; for EC50: read-out: Ab EC50; for inhibition at 198 µM: percentage inhibition at the highest concentration tested, read-out: Top Inh
Method: as §1, §2, §3, §4

HepG2 = test: CellTiterGlo cell viability assay, HepG2; type: cell-based; conditions: Homo sapiens, HepG2, 72 h; for EC50: read-out: Ab EC50; for inhibition at 198 µM: percentage inhibition at the highest concentration tested, read-out: Top Inhibit
Method: as §1, §2, §3, §4

RL = test: CellTiterGlo cell viability assay, RL; type: cell-based; conditions: Homo sapiens, 72 h, percentage inhibition at the highest concentration tested, read-out: Top Inh
Method: as §1, §2, §3, §4

MOLT-4 = test: CellTiterGlo cell viability assay, MOLT-4; type: cell-based; conditions: Homo sapiens, MOLT-4, 72 h; for inhibition at 198 µM: percentage inhibition at the highest concentration tested, read-out: Top Inh; for EC50: read-out: Ab EC50
Method: as §1, §2, §3, §4

CCRF-CEM = test: CellTiterGlo cell viability assay, CCRF-CEM; type: cell-based; conditions: Homo sapiens, 72 h; for EC50: read-out: Ab EC50; for inhibition at 198 µM: percentage inhibition at the highest concentration tested, read-out: Top Inh
Method: as §1, §2, §3, §4

RPMI-8226 = test: CellTiterGlo cell viability assay, RPMI-8226; type: cell-based, Human; conditions: Homo sapiens, RPMI-8226, 72 h; for EC50: read-out: Ab EC50; for inhibition at 198 µM: percentage inhibition at the highest concentration tested, read-out: Top Inh
Method: as §1, §2, §3, §4

KG-1 = test: CellTiterGlo cell viability assay, KG-1; type: cell-based; conditions: Homo sapiens, KG-1, 72 h; for EC50: read-out: Ab EC50; for inhibition at 198 µM: percentage inhibition at the highest concentration tested, read-out: Top Inhibit
Method: as §1, §2, §3, §4

K562 = test: CellTiterGlo cell viability assay, K562; type: cell-based; conditions: Homo sapiens; for inhibition at 198 µM: percentage inhibition at the highest concentration tested, read-out: Top Inh; for EC50: read-out: Ab EC50
Method: as §1, §2, §3, §4

[1] = K562, K 562, 72 h, Table 4 classes

| SMILES | inhibition at 198 µM (OVCAR 3) [%] | inhibition at 198 µM (MCF-7) [%] | inhibition at 198 µM (HT29) [%] | inhibition at 198 µM (HL-60) [%] | inhibition at 198 µM (HepG2) [%] | inhibition at 198 µM (RL) [%] | inhibition at 198 µM (MOLT-4) [%] | inhibition at 198 µM (CCRF-CEM) [%] | inhibition at 198 µM (RPMI-8226) [%] | inhibition at 198 µM (KG-1) [%] | inhibition at 198 µM (K562; K562, 72 h) [%] | EC50 (OVCAR 3; Table 4 classes) [nM] | EC50 (HT29; Table 4 classes) [nM] | EC50 (HL-60; Table 4 classes) [nM] | EC50 (HepG2; Table 4 classes) [nM] | EC50 (MOLT-4; Table 4 classes) [nM] | EC50 (CCRF-CEM; Table 4 classes) [nM] | EC50 (RPMI-8226; Table 4 classes) [nM] | EC50 (KG-1; Table 4 classes) [nM] | EC50 (K562; [1]) [nM] | other results |
| --- | --- | --- | --- | --- | --- | --- | --- | --- | --- | --- | --- | --- | --- | --- | --- | --- | --- | --- | --- | --- | --- |
| CC(C)OC(=O)[C@H](C)NP(=O)(Oc1ccccc1)OP(=O)(O)OC[C@H]1O[C@@H](n2cnc3c(N)nc(Cl)nc32)[C@H](F)C1O (stereo partly drawn) [Example 15, 2-Chloro-9-(2′-Deoxy-2′-fluoro-β-D-arabinofuranosyl)adenine-5′-O-[1-phenyl(isopropoxy-L-alaninyl)] Diphosphate Triethylammonium Salt] | 41 | 47 | 69 | 96 | 51 | 49 | 90 | 99 | 80 | 92 | 36 |  |  |  |  |  |  |  |  |  | EC50 (OVCAR 3; absolute EC50, numeric values): > 198000 nM; EC50 (HT29; absolute EC50, numeric values): 330 nM; EC50 (HL-60; absolute EC50, numeric values): 60 nM; EC50 (HepG2; absolute EC50, numeric values): 370 nM; EC50 (MOLT-4; absolute EC50, numeric values): 30 nM; EC50 (CCRF-CEM; absolute EC50, numeric values): < 20 nM; EC50 (RPMI-8226; absolute EC50, numeric values): 30300 nM; EC50 (KG-1; absolute EC50, numeric values): 90 nM; EC50 (K562; K562, 72 h, absolute EC50, numeric values): > 198000 nM |
| COC(=O)[C@H](C)NP(=O)(Oc1ccccc1)OP(=O)(O)OC[C@H]1O[C@@H](n2cnc3c(N)nc(Cl)nc32)[C@H](F)C1O (stereo partly drawn) [Example 16, 2-Chloro-9-(2′-Deoxy-2′-fluoro-β-D-arabinofuranosyl)adenine-5′-O-[1-phenyl(methoxy-L-alaninyl)] Diphosphate Triethylammonium Salt] | 44 | 47 | 71 | 96 | 53 | 49 | 97 | 99 | 84 | 93 | 33 | > 10000 | 200 to 1000 | < 200 | 200 to 1000 | < 200 | < 200 | > 10000 | < 200 | > 10000 |  |
| C[C@H](NP(=O)(Oc1cccc2ccccc12)OP(=O)(O)OC[C@H]1O[C@@H](n2cnc3c(N)nc(Cl)nc32)[C@H](F)C1O)C(=O)OCc1ccccc1 (stereo partly drawn) [Example 17, 2-Chloro-9-(2′-Deoxy-2′-fluoro-β-D-arabinofuranosyl)adenine-5′-O-[1-1-naphthyl(benzoxy-L-alaninyl)] Diphosphate Triethylammonium Salt] | 47 | 46 | 69 | 96 | 52 | 48 | 88 | 99 | 82 | 92 | 37 | > 10000 | 200 to 1000 | < 200 | 200 to 1000 | < 200 | < 200 | > 10000 | < 200 | > 10000 |  |
